Like-named read-outs stand apart in the source and are kept apart here.

What is called IC50 is the concentration at which inhibition is half-maximal. In general, EC50 refers to the concentration at which the effect is half-maximal. The Ki is a measure of affinity in units of concentration, obtained from inhibition or displacement. Higher therefore signals weaker binding.

For experiment [1], the system named is ATX. The conditions noted are these: cited from earlier work.
For the next experiment, the system named is ATX tunnel. The arrangement: method as in PMID 27075612. The conditions noted are these: partial non-competitive modulators; cited from earlier work.
The target in experiment [2] is T1, ATX (Rattus norvegicus, UniProt Q64610). As to the kind of experiment: Choline oxidase-coupled choline-release assay of LPC hydrolysis by ATX.
The test system of another experiment is BJeH fibroblasts. As to the kind of experiment: AKT and ERK phosphorylation by western blotting. As to conditions: Homo sapiens, 0.25 h, 15 min. Type of experiment: cell-based. On the procedure:
100,000 BJeH cells were seeded in 12-well tissue culture plates and allowed to grow for 24 h in DMEM (GIBCO, Life Technologies) containing 10% FCS (Thermo Scientific) and 100 U mL^–1 streptomycin/penicillin (GIBCO, Life Technologies). Next, they were washed twice with phosphate-buffered saline (PBS) and serum-starved O/N. ATX 20 nM was incubated with inhibitors for 30 min in a serum-free medium containing 0.05% (w/v) fatty acid-free BSA (total volume 1 mL). The medium from the 12-well plates was removed and replaced with 1 mL of the ATX–inhibitor mixture. Cells were stimulated for 15 min, the medium was removed, and plates were immediately frozen on dry ice and stored at −80 °C. For western blotting, cells were washed with cold PBS; lysed in RIPA buffer; supplemented with protease inhibitors (Pierce), 20 mM NaF and 1 mM orthovanadate; and spun down. The protein concentration was measured using a BCA protein assay kit (Pierce), and LDS sample buffer (NuPAGE, Invitrogen) and 1 mM dithiothreitol were added to the lysate. 20 μg of the total protein was loaded on sodium dodecyl sulfate–polyacrylamide gel electrophoresis pre-cast gradient gels (4–12% Nu-Page Bis-Tris, Invitrogen), followed by transfer to a nitrocellulose membrane. Non-specific protein binding was blocked by 5% BSA in PBS-Tween (0.1%); the primary antibodies were phospho-Akt (Ser473), catalogue number: D93, dilution: 1:1,000; phospho-ERK1/2 (Thr202/Tyr204), catalogue number: D13.14.4E, dilution: 1:2,000, from Cell Signaling Technology. They were incubated O/N at 4 °C in PBS–Tween with 5% BSA, containing 0.1% NaN3. Blots were then incubated for 1 h at room temperature with monoclonal anti-β-actin antibody, clone AC-15, dilution: 1:10,000, from Sigma, which was dissolved in PBS–Tween with 5% skimmed milk containing 0.1% NaN3. HRP-conjugated secondary antibodies [goat anti-mouse (Bio-Rad), catalogue number: 1721011; goat anti-rabbit (Pierce), catalogue number: 1858415] were incubated for 1 h at room temperature in PBS–Tween with 2.5% BSA and developed using an ECL Western blot reagent.

Experiment [3] concerns the target T1, ATX. As to the kind of experiment: Mechanistic studies: mode of inhibition and Ki from LPC titration. It is filed as biochemical. Also on record: made in house. The procedure:
The biochemical studies of ATX lysoPLD activity were performed with ATX. Activity was measured by a coupled reaction with 1 U mL^–1 choline oxidase and 2 U mL^–1 horseradish peroxidase (HRP) and 2 mM homovanillic acid (HVA) (all from Sigma-Aldrich). For the assays, 14:0, 16:0, 18:1, and 20:0 LPC (Avanti Polar Lipids Inc.) were incubated with 20 nM ATX, reaching a final volume of 100 μL of the buffer, which contained 50 mM Tris, 0.01%, 50 mM CaCl2, Triton X-100, pH 7.4. Steady-state choline release was measured at 37 °C by HVA fluorescence at λex/λem = 320/460 nm in Corning 96- or 384-well OptiPlate (Sigma-Aldrich) and with a Pherastar plate reader (BMG Labtech). […] The resulting fluorescence intensity signal over time was used to model all inhibitor concentrations simultaneously using the following formula, where vmax and vmin were fitted for the minimum and maximum relative velocities, respectively, and ci corresponds to the inhibitor concentration for each assay[20] [drawing 1] 1
To statistically determine the chance of each type of inhibition, we calculated the α value in the partial mixed inhibition model (eq 5), where Part defines the partiality of the inhibition, and α > 1 or α = 1 correspond to competitive and non-competitive inhibition modes, respectively. Last, we utilized Akaike’s Information Criterion[42] to assess the significance of the analysis [drawing 5] 5

The test system of the next experiment is MDA-MB-231 cells. As to the kind of experiment: Boyden chamber cell migration assay. Type of experiment: cell-based. The conditions noted are these: migration for 4 h; for EC50: 20 nM ATX, 1 μM 18:1 LPC. On the procedure: Migration of MDA-MB-231 cells was performed using 48-well chemotaxis chambers (Neuro Probe, Inc.) equipped with […] pore polycarbonate membranes, which were coated with fibronectin (10 μg/mL) (F1141, Sigma-Aldrich). Cells (2 × 10^6 cells/mL) were added to the upper chamber. 0.05% fatty acid-free BSA was used as a lysophospholipid carrier. Cells were allowed to migrate for 4 h at 37 °C in humidified air containing 5% CO2. Migrated cells were fixed in Diff-Quik Fix and stained using Diff-Quik II. Migration was quantified by color intensity measurements using Photoshop software.

For experiment [4], the target named is T1, ATX. As to the kind of experiment: Competition with LPA allostery (LPA-mediated activation of ATX). It is filed as biochemical. Also on record: made in house. As to conditions: inhibitor at concentrations close to or lower than IC50; 150 μM 18:1 LPC, 18:1 LPA, 20 nM ATX. On the procedure:
The activation assays using LPA were performed in a similar way to those done for the inhibitors. In this case, LPA was dissolved in ethanol/H20 (1:1) and 0.01% TX-100 and was added to the reaction buffer. The presence of ethanol was taken into account, and controls in the absence of ATX and/or LPC were employed to correct the kinetic data. ATX was incubated for 30 min with different concentrations of inhibitors and subsequently added to the reaction buffer containing 150 μM 18:1 LPC and different starting concentrations of 18:1 LPA. The slopes were calculated from at least 60 min after the addition of ATX. The percentage of LPA-driven activation was normalized to ATX in the absence of LPA and inhibitors, which represented 100% activity. Last, the activation constant or AC50 was obtained from the following equation [drawing 2] 2

In experiment [5] the test system is LPA1-HA-expressing HeLa-Flp-In cells. As to the kind of experiment: Confocal microscopy for LPA1 internalization. As to conditions: 1 μM 18:1 LPC, 20 nM ATX, 15 min. It is filed as cell-based, Human. On the procedure: Human LPA1 cDNA was amplified by PCR to remove its stop codon and add the restriction sites for BamHI and XhoI, after which it was subcloned in an in-house produced pDNA5.1-HA vector. 0.2 μg of the resulting vector and 1.8 μg of pOG44 Flp-Recombinase Expression Vector (Invitrogen) were incubated with 6 μL of Fugene6 (Invitrogen) in 200 μL of OptiMEM (Gibco) for 30 min, after which the mix was added to previously produced HeLa-Flp-In cells.[43] Their medium was refreshed 24 h later, and selection with 1 μg/mL puromycin was started and maintained with resistant cells.
Serum-starved LPA1-HA-expressing HeLa-Flp-In cells cultured on 24 mm (#1,5) were treated with 1 μM LPC and 20 nM ATX in the presence or absence of 22 or 23 for 15 min in DMEM containing 0.05% fatty acid-free BSA. Subsequently, coverslips were washed and fixed with 4% PFA, permeabilized with 0.1% Triton X-100, and blocked with 2% BSA for 1 h. Incubation with anti-HA antibody (3F10 from Roche Diagnostics; 1:200) was done for 1 h, followed by incubation with donkey anti-rat Alexa Fluor 488-conjugated antibody (A-21208 from Invitrogen; 1:200) for 1 h at room temperature. For confocal microscopy, cells were washed with PBS, mounted with Immnuno-MountTM (Thermo Scientific), visualized on a LEICA TCS-SP5 confocal microscope (63× objective), and analyzed using ImageJ software.

The mark [6] stands for this setting: 14:0 LPC, 150 μM LPC, 20 nM ATX.
[7] abbreviates: 16:0 LPC, 150 μM LPC, 20 nM ATX.
Where [8] appears, read: 18:1 LPC, 150 μM LPC, 20 nM ATX.
Where [9] appears, read: LPC hydrolysis assay, 20 nM ATX.

On to “2-[[2-Ethyl-6-[4-[2-(3-hydroxyazetidin-1-yl)-2-oxoethyl]piperazin-1-yl]-8-methylimidazo[1,2-a]pyridin-3-yl]methylamino]-4-(4-fluorophenyl)thiazole-5-carbonitrile [Compound 3]”, for which, in the experiment on ATX [1], the IC50 was 131 nM.
Regarding `C[C@H](CCC(=O)O)[C@H]1CC[C@H]2[C@@H]3[C@@H](O)C[C@@H]4C[C@H](O)CC[C@]4(C)[C@H]3CC[C@]12C` [Compound 9, ursodeoxycholic acid, reference compound], the “affinity for the ATX tunnel” value in the experiment with ATX tunnel is listed as “micromolar”. The same molecule registered an IC50 on ATX [2] of 9000 nM.
`C[C@H](CCC(=O)N1CCC(Oc2ccc(B(O)O)cc2)CC1)[C@H]1CC[C@H]2C3[C@@H](O)C[C@@H]4C[C@H](O)CC[C@]4(C)[C@H]3CC[C@]12C` (stereo partly drawn) [Compound 23]: the EC50 in the experiment on BJeH fibroblasts (BJeH cells, 20 nM ATX, 1 μM 18:1 LPC, read-out: EC50 (P-AKT and P-ERK levels)) is roughly 60 nM; in the experiment on MDA-MB-231 cells (Homo sapiens, MDA-MB-231, 4 h), 186 ± 99 nM; with MDA-MB-231 cells, roughly 200 nM. Besides, the Emax in the experiment on BJeH fibroblasts (BJeH, compared to uninhibited ATX incubated with LPC, read-out: reduction of maximal effective cell response (P-AKT and P-ERK)) was roughly 60%. The “percentage of competitive versus non-competitive inhibition” value on ATX [3] (Akaike's informative criteria) is recorded as 99%. Moreover, the mode of inhibition entry at ATX [3] (LPC hydrolysis) is recorded as “competitive”. At ATX [3] (LPC titration at increasing inhibitor concentrations, Michaelis-Menten nonlinear regression), this molecule returned a Ki of 9 ± 1 nM. The “α (partial mixed inhibition model)” value at ATX [3] (α > 1 competitive, α = 1 non-competitive) is 8.5. In addition, the “reduction of cell migration” value in the experiment with MDA-MB-231 cells (ATX + LPC) is listed as roughly 50%. For the same molecule, the IC50 at ATX [2] (setting [6]) amounted to 54 nM; at ATX [2] (setting [7]), 34 nM; against ATX [2] (setting [8]), 29 nM; on ATX [2] (20:0 LPC, 150 μM LPC, 20 nM ATX), 33 nM; at ATX [2] (setting [9]), 30 nM. Besides, the “Residual Activity (%)” value on ATX [2] (setting [6]) turned out to be 0%; on ATX [2] (setting [7]) it was 12%; at ATX [2] (setting [8]), 7%; on ATX [2] (20:0 LPC, 150 μM LPC, 20 nM ATX, % of catalytic rate of inhibitor-free control), 51%; on ATX [2] (setting [9]), 0%. At ATX [4], the “LPA-mediated activation of ATX activity” value is on record as “dose-dependent decrease”. Besides, the “decrease of LPA1 internalization” value in experiment [5] was “approximately 75%”.

These data come from paper PMC9059126, “Structure-Based Design of a Novel Class of Autotaxin Inhibitors Based on Endogenous Allosteric Modulators” (Journal of Medicinal Chemistry, 2022).
